Article PMC8747035, “Design, Synthesis, and Biological Evaluation of 5,6,7,8-Tetrahydrobenzo[4,5]thieno[2,3-d]pyrimidines as Microtubule Targeting Agents” (Molecules, 2022)
“Also recorded” adds a separate entry of the source. Where two headings read alike, the source gives them in different places.

Experiments:
SK-OV-3 cells = assay: SRB assay in SK-OV-3 cells; type: cell-based; conditions: Homo sapiens, read-out: IC50 ± SD in SK-OV-3 Cells
Procedure: (§1) Comparison of the IC50 values in the parental SK-OV-3 and genetically manipulated SK-OV-3 MDR1-M6/6 cell line allows for the calculation of a relative resistance value, designated Rr. This value is calculated by dividing the IC50 value obtained in the Pgp-expressing SK-OV-3 MDR1-M6/6 cells by the IC50 obtained in the parental SK-OV-3 cells.
(§2) The antiproliferative and cytotoxic effects of the compounds in cancer cells were evaluated using the SRB assay as previously described. MDA-MB-435 cells were obtained from the Lombardi Cancer Center of Georgetown University (Washington, DC, USA). SK-OV-3 and HeLa cells were purchased from ATCC. Details about the generation of the SK-OV-3 MDR1-M6/6 and HeLa WTβIII cells were described previously. The IC50 values represent an average of three independent experiments, each conducted using triplicate points.
(§3) HeLa, A-10, SK-OV-3, and SK-OV-3 MDR1-M6/6 cells were grown in Basal Medium Eagle (Sigma-Aldrich, St. Louis, MO, USA) supplemented with 10% FBS (Hyclone, GE Life Sciences, Logan, UT, USA) 1% GlutaMAX (Gibco, Life Technologies, Waltham, MA, USA) and 50 µg/mL gentamycin (Life Technologies, USA). HeLa WTβIII cells were grown in Dulbecco’s Modified Eagle Medium (Life Technologies) supplemented with 10% FBS and 50 µg/mL gentamycin. MDA-MB-435 cells were maintained in Improved Minimum Essential Medium (Life Technologies) supplemented with 10% FBS and 25 µg/mL gentamycin. All cells were grown at 37 °C in a humidified environment with 5% CO2.

MDA-MB-435 tumors = assay: MDA-MB-435 xenograft model; type: in vivo, nude mice; conditions: 15 mg/kg i.p. 3 times a week
Procedure: Compound 4 was selected for further evaluation in an in vivo xenograft mouse study in light of its nanomolar potency in vitro in the NCI-60 cancer cell line panel and its potent microtubule depolymerization activity. The in vivo effects of 4 were tested in the MDA-MB-435 xenograft model (Figure 5).
MDA-MB-435 tumor fragments were implanted s.c. into the flanks of female nude mice. […] Compound 4 was dissolved in a 50:50 Cremophor EL/DMSO mixture and further dissolved in PBS for a final concentration of 10:10:80 Cremophor EL:DMSO:PBS (v/v). […] Tumor volumes and mouse weights were measured 2–3 times a week. A two-way ANOVA with Dunnett’s post-hoc tests including all treatment groups in the trial was used to determine significant differences in tumor volumes between drug-treated and untreated control groups on each measurement day. These animal studies were performed at the University of Texas Health Science Center in San Antonio in compliance with an approved Institutional Animal Care and Use protocol.
MDA-MB-435 tumors were implanted into the flanks of nude mice and allowed to grow until they reached a volume of ~200 mm^3. […] Tumor volumes and mouse weights were measured 2–3 times a week. Statistical significance was evaluated by two-way ANOVA (time vs. drug) with Dunnett’s post-hoc tests. A statistically significant difference in tumor volume was detected on day 14 between mice treated with 4 (* p = 0.0384) and untreated control tumors.

HeLa WTβIII cells = assay: SRB assay in βIII-tubulin expressing HeLa WTβIII cells; type: cell-based; conditions: Homo sapiens, read-out: IC50 ± SD in HeLa WTβ3
Procedure: (§4) Compounds 4–8, 10, 12, and 13 were evaluated for their abilities to overcome βIII-tubulin mediated drug resistance using an isogenic HeLa cell line pair (Table 4). […] The Rr values (Table 4) were calculated by dividing the IC50 of the βIII-tubulin expressing line by the IC50 obtained in the parental HeLa cells.
as §2, §3

HeLa cells = assay: SRB assay in HeLa cells; type: cell-based; conditions: Homo sapiens, read-out: IC50 ± SD in HeLa
Procedure: as §4, §2, §3

A-10 cells = assay: Cellular microtubule depolymerization in A-10 cells (immunofluorescence); type: cell-based; conditions: for EC50: Rattus norvegicus, A10, 18 h, loss of 50% of interphase microtubules; for Microtubule depolymerization activity in A-10 cells: at a 10 µM concentration
Procedure: (§5) We investigated the microtubule depolymerization and the antiproliferative activities of compounds 4–14 (Table 2). […] We next evaluated the importance of the 4′-OMe group of compound 4 by replacing it with an isosteric 4′-SMe (5). […] Clearly, this further substantiated the importance of an S in the scaffold over an NH.
The effects of the compounds on cellular microtubules were evaluated in A-10 cells using indirect immunofluorescence microscopy. These cells were obtained from the American Type Culture Collection (ATCC) (Manassas, VA, USA). Cells were treated with the compounds of interest for 18 h, and the cells fixed with cold MeOH and microtubule structures were visualized using a β-tubulin antibody (Sigma-Aldrich, St. Louis, MO, USA). The concentration that caused loss of 50% of the interphase microtubules was defined as the EC50 and calculated as previously described. These values represent an average of at least three independent experiments.

Bovine brain tubulin = assay: Inhibition of purified tubulin assembly (turbidity); type: biochemical; conditions: 10 µM tubulin, 30 °C; read-out: Inhibition of Tubulin Assembly IC50 ± SD
Procedure: (§6) Bovine brain tubulin was purified as described previously. The tubulin assembly assay has been described in detail. Briefly, 1.0 mg/mL of tubulin (10 µM) was preincubated for 15 min at 30 °C in 0.8 M monosodium glutamate (pH of 2 M stock solution adjusted to 6.6 with HCl), varying compound concentrations and 4% (v/v) DMSO as compound solvent. After the preincubation, the reaction mixtures were placed on ice and 0.4 mM GTP was added. The reaction mixtures were transferred to cuvettes at 0 °C in a recording spectrophotometer equipped with an electronic temperature controller. After baselines were established, the temperature was elevated over about 30 s to 30 °C, and changes in turbidity were monitored at 350 nm for 20 min. The compound concentration that caused a 50% reduction in increase in turbidity, interpolated from the values obtained with defined compound concentrations, was defined as the IC50 value. The assay to measure inhibition of [^3H]colchicine binding was described in detail previously. Briefly, 0.1 mg/mL (1.0 µM) tubulin was incubated at 37 °C with 5.0 µM [3H]colchicine and potential inhibitors at 5.0 µM. Incubation was for 10 min, at which point the reaction had reached 40–60% of the maximum colchicine that can be bound in reaction mixtures without inhibitor. The [^3H]colchicine was a product of PerkinElmer, USA. CA-4 was a generous gift of Dr. G. R. Pettit, Arizona State University.

SK-OV-3 MDR1-M6/6 cells = assay: SRB assay in Pgp-expressing SK-OV-3 MDR1-M6/6 cells; type: cell-based; conditions: Homo sapiens, SKOV3-MDR1-M6/6, read-out: IC50 ± SD in SK-OV-3 MDR1-M6/6 Cells
Procedure: as §1, §2, §3

MDA-MB-435 cells = assay: Antiproliferative SRB assay in MDA-MB-435 cells; type: cell-based, human; conditions: read-out: IC50 ± SD in MDA-435 Cells
Procedure: as §5, §2, §3

tubulin = assay: Inhibition of [3H]colchicine binding to tubulin; parameters: species or system Bovine; conditions: compound at 5 μM, 5.0 µM [3H]colchicine, 1.0 µM tubulin
Procedure: as §6, with “Incubation was for 10 min, at which point the reaction had reached 40–60% of the maximum colchicine that can be bound in reaction mixtures without inhibitor.” left out, “USA.” for “USA. CA-4 was a generous gift of Dr. G. R. Pettit, Arizona State University.”

| SMILES | IC50 (SK-OV-3 cells) | IC50 (HeLa WTβIII cells) | IC50 (HeLa cells) | EC50 (A-10 cells) | IC50 (Bovine brain tubulin) | IC50 (SK-OV-3 MDR1-M6/6 cells) | IC50 (MDA-MB-435 cells; Homo sapiens) | Inhibition of Colchicine Binding (% inhibition ± SD) (tubulin) | IC50 (MDA-MB-435 cells) | Antitumor effects on MDA-MB-435 tumor volume vs control (MDA-MB-435 tumors) | Microtubule depolymerization activity in A-10 cells (A-10 cells) |
| --- | --- | --- | --- | --- | --- | --- | --- | --- | --- | --- | --- |
| CC(=O)O[C@H]1C(=O)[C@@]2(C)[C@H]([C@H](OC(=O)c3ccccc3)[C@]3(O)C[C@H](OC(=O)[C@H](O)[C@@H](NC(=O)c4ccccc4)c4ccccc4)C(C)=C1C3(C)C)[C@]1(OC(C)=O)CO[C@@H]1C[C@@H]2O [Paclitaxel, paclitaxel, reference compound] | 5 ± 0.6 nM | 24 ± 3 nM | 2.8 ± 0.4 nM |  |  |  |  |  |  | did not reach statistical significance |  |
| COc1ccc(N(C)c2nc(C)nc3sc4c(c23)CCCC4)cc1 [Compound 8, N-(4-methoxyphenyl)-N,2-dimethyl-5,6,7,8-tetrahydrobenzo[4,5]thieno[2,3-d]pyrimidin-4-amine] | 47.7 ± 1.2 nM | 81.3 ± 5.2 nM | 87.9 ± 8.8 nM | 52 nM | 560 ± 90 nM | 57.5 ± 0.5 nM | 53 ± 0.3 nM | 96.0 ± 0.40% |  |  |  |
| COc1ccc(Nc2nc(C)nc3sc4c(c23)CCCC4)cc1 [Compound 9, N-(4-methoxyphenyl)-2-methyl-5,6,7,8-tetrahydrobenzo[4,5]thieno[2,3-d]pyrimidin-4-amine] |  |  |  |  |  |  |  |  |  |  | did not show any activity; also recorded: Not MT active ^c |
| CSc1ccc(Nc2nc(C)nc3sc4c(c23)CCCC4)cc1 [Compound 11, 2-Methyl-N-(4-(methylthio)phenyl)-5,6,7,8-tetrahydrobenzo[4,5]thieno[2,3-d]pyrimidin-4-amine] |  |  |  |  |  |  |  |  |  |  | did not show any activity; also recorded: Not MT active ^c |
| Cc1nc(Nc2ccc3c(O)cccc3c2)c2c3c(sc2n1)CCCC3 [Compound 14, 6-((2-Methyl-5,6,7,8-tetrahydrobenzo[4,5]thieno [2,3-d]pyrimidin-4-yl)amino)naphthalen-1-ol] |  |  |  |  |  |  |  |  |  |  | did not show any activity; also recorded: Not MT active ^c |
| COc1ccc(/C=C\c2cc(OC)c(OC)c(OC)c2)cc1O [CA-4, combretastatin A-4] |  |  |  | 13 nM | 1000 ± 90 nM |  | 3.4 ± 0.6 nM |  |  |  |  |
| CSc1ccc(N(C)c2nc(C)nc3sc4c(c23)CCCC4)cc1 [Compound 10, N,2-dimethyl-N-(4-(methylthio)phenyl)-5,6,7,8-tetrahydrobenzo[4,5]thieno[2,3-d]pyrimidin-4-amine] | 136 ± 15 nM | 108 ± 8.6 nM | 146 ± 14 nM | 157 nM | 540 ± 80 nM | 209 ± 40 nM | 87.7 ± 4.7 nM | 89.0 ± 0.20% |  |  |  |

Continued, in another order:

| IC50 (SK-OV-3 cells) | IC50 (HeLa WTβIII cells) | IC50 (HeLa cells) | EC50 (A-10 cells) | IC50 (Bovine brain tubulin) | IC50 (SK-OV-3 MDR1-M6/6 cells) | IC50 (MDA-MB-435 cells; Homo sapiens) | Inhibition of Colchicine Binding (% inhibition ± SD) (tubulin) | IC50 (MDA-MB-435 cells) | SMILES | Antitumor effects on MDA-MB-435 tumor volume vs control (MDA-MB-435 tumors) | Microtubule depolymerization activity in A-10 cells (A-10 cells) |
| --- | --- | --- | --- | --- | --- | --- | --- | --- | --- | --- | --- |
| 178 ± 1.1 nM | 203 ± 12 nM | 191 ± 8.1 nM | 150 nM |  | 223 ± 9.4 nM | 125 ± 14 nM |  |  | COc1ccc2c(c1)CCCN2c1nc(C)nc2sc3c(c12)CCCC3 [Compound 12, 4-(6-Methoxy-3,4-dihydroquinolin-1(2H)-yl)-2-methyl-5,6,7,8-tetrahydrobenzo[4,5]thieno[2,3-d]pyrimidine] |  |  |
| 37 ± 6.2 nM | 38 ± 3.9 nM | 57.2 ± 8.5 nM | 45 nM | 490 ± 60 nM | 47.1 ± 7.6 nM | < 40 nM | 95.0 ± 0.40% | 36.8 ± 5.2 nM | COc1ccc(N(C)c2ncnc3sc4c(c23)CCCC4)cc1 [Compound 7, N-(4-methoxyphenyl)-N-methyl-5,6,7,8-tetrahydrobenzo[4,5]thieno[2,3-d]pyrimidin-4-amine] |  |  |
| 71.8 ± 5.3 nM | 44.1 ± 4.8 nM | 64.3 ± 4.3 nM | 70 nM | 490 ± 80 nM | 74.1 ± 11 nM | < 40 nM | 94.0 ± 2.0% | 38.6 ± 5.6 nM | CSc1ccc(N(C)c2nc(N)nc3sc4c(c23)CCCC4)cc1 [Compound 5, N4-methyl-N4-(4-(methylthio)phenyl)-5,6,7,8-tetrahydrobenzo[4,5]thieno[2,3-d] pyrimidine-2,4-diamine] |  |  |
| 92.5 ± 3.3 nM | 80.3 ± 6.4 nM | 123 ± 12 nM | 121 nM |  | 91.7 ± 12 nM | 59.6 ± 11.8 nM |  |  | COc1ccc2c(c1)CCCN2c1nc(N)nc2sc3c(c12)CCCC3 [Compound 6, 4-(6-Methoxy-3,4-dihydroquinolin-1(2H)-yl)-5,6,7,8-tetrahydrobenzo[4,5]thieno[2,3-d]-pyrimidin-2-amine] |  |  |
| 142 ± 22 nM | 139 ± 20 nM | 170 ± 34 nM | 118 nM |  | 143 ± 244 nM | 81.3 ± 8.4 nM |  |  | COc1cccc2cc(N(C)c3nc(C)nc4sc5c(c34)CCCC5)ccc12 [Compound 13, N-(5-methoxynaphthalen-2-yl)-N,2-dimethyl-5,6,7,8-tetrahydrobenzo[4,5]thieno[2,3-d]pyrimidin-4-amine] |  |  |
